ChEMBL document CHEMBL1201862, “PubChem BioAssay data set” (2004)
Calls of active or inactive are those of the source.

Experiments:
[1] = molecular target: Voltage-gated inwardly rectifying potassium channel KCNH2 (Homo sapiens, UniProt Q12809); assay: concentration-dependent hERG rescue from blockers – cell-based, thallium flux, dose response (AID 2121); format: ADME
Cytochrome P450 2C9 = Cytochrome P450 2C9 (Homo sapiens, UniProt P11712)
[2] = NIH-3T3 fibroblast cytotoxicity, dose response, cytotoxicity control, cell-based, fluorescence, Alamar Blue, secondary assay (AID 2327); format: functional;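 note: NIH-3T3 mouse fibroblasts cultured with fluconazole at 8 µg/mL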
[3] = fluconazole-exposed Candida albicans growth modulators – fluorescence, retest, confirmation (AID 2467); format: functional, cell-based
Ephrin type-A receptor 4 = Ephrin type-A receptor 4 (Mus musculus, UniProt Q03137); assay: EphA4 ligand-binding antagonists – biochemical, colorimetric, mouse EphA4, primary screen (AID 689); format: functional
[4] = Luminescence Cell-Based Dose Confirmation to Identify Activators of 5'UTR Stem-Loop Driven Alpha-Synuclein mRNA Translation in H4 Neuroglioblastoma Cells. [Related pubchem assays: 1829 (Project Summary), 1814 (Primary HTS)]; format: functional
[5] = Luminescence Cell-Based Dose Response to Identify Activators of Luciferase Translation or Activity in H4-C Neuroglioblastoma Cells. [Related pubchem assays: 1829 (Project Summary), 1814 (Primary HTS)]; format: functional
[6] = Luminescence Cell-Based Dose Response to Identify Activators of 5'UTR Stem-Loop Driven Prion Protein mRNA Translation in H4-C Neuroglioblastoma Cells. [Related pubchem assays: 1829 (Project Summary), 1814 (Primary HTS)]; format: functional
H4 = assay: Luminescence Cell-Based Dose Response HTS to Identify Activators of 5'UTR Stem-Loop Driven Prion Protein mRNA Translation in H4 Neuroglioblastoma Cells. [Related pubchem assays: 1829 (Project Summary), 1814 (Primary HTS)]; format: functional; settings: Homo sapiens
[7] = Luminescence Cell-Based Dose Response HTS to Identify Activators of Luciferase Translation or Activity in H4 […] Cells. [Related pubchem assays: 1829 (Project Summary), 1814 (Primary HTS)]; format: functional
Major prion protein = Major prion protein (Homo sapiens, UniProt P04156); format: functional, cell-based
Estrogen receptor beta = Estrogen receptor beta (Homo sapiens, UniProt Q92731);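 note: recombinant ER-beta bound to coactivator SRC1 peptide in presence of estradiol agonist; inhibitors block coactivator peptide binding and lower the FRET signal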
Paired box protein Pax-8 = Paired box protein Pax-8 (Homo sapiens, UniProt Q06710); assay: PAX8 transcriptional activity inhibition in RMG-I – RMG-I cells, luciferase, cherry-pick, dose response (AID 687027); format: functional, cell-based;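 note: luciferase reporter driven by Pax8 target thyroperoxidase promoter measured by SteadyGlo luminescence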
[8] = IGROV1 cell killing – plate reader, dry powder samples, PAX8 inhibitor project, dose response (AID 743043); format: functional, cell-based; settings: IGROV-1
[9] = loss of viability in HepG2 cells – cell-based, CellTiter-Glo, cherry-picked, cytotoxicity control for Shn3 inhibitor project, dose response (AID 624134); format: functional
[10] = reduction of Shn3 3'UTR-driven luciferase in osteoblasts – cell-based, Clone20 osteoblasts, firefly luciferase, cherry-picked, dose response (AID 624132); format: functional;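 note: firefly luciferase luminescence from reporter carrying the Shn3 3'UTR in osteoblasts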
[11] = non-specific 3'UTR reporter inhibition in Clone20-Shn3RL – cell-based, Renilla luciferase, cherry-picked, counter-screen for Shn3 inhibitor project, dose response (AID 624133); format: functional
[12] = Shn3 3'UTR reporter signal decrease – cell-based, Clone20 osteoblasts, firefly luciferase, cherry-pick, set 2, Schnurri-3 inhibitor project, dose response (AID 720490); format: functional;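 note: actives lower the luminescence signal as inhibitors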
[13] = general mammalian cell viability loss – inhibitor set, cherry-pick, set 2, cytotoxicity control for miR-122 modulator project, dose response (AID 720697); format: functional, cell-based
[14] = general mammalian cell viability loss – activator set, cherry-pick, cytotoxicity control for miR-122 modulator project, dose response (AID 720690); format: functional, cell-based;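 note: HEK293T human cells scored for general mammalian cytotoxicity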
Caspase-6 = Caspase-6 (Homo sapiens, UniProt P55212); assay: inhibition of CASP6 peptide cleavage – biochemical, VEID-R110 fluorescence, cherry-pick, dose response (AID 720632)
Prothrombin = Prothrombin (Homo sapiens, UniProt P00734); assay: Thrombin 1536 HTS Dose Response Confirmation. [Related pubchem assays: 1046 (Thrombin 1536 HTS; hits were confirmed in this assay)]; format: functional
fMet-Leu-Phe receptor = fMet-Leu-Phe receptor (Homo sapiens, UniProt P21462); assay: formyl peptide receptor binders – dose response (AID 519); format: functional
Cytochrome P450 2C19 = Cytochrome P450 2C19 (Homo sapiens, UniProt P33261); assay: Cytochrome panel assay with activity outcomes. Panel member name: p450-cyp2c19 Compounds with AC50 equal or less than 10 uM are considered active; format: functional; settings: read-out: AC50
[15] = MITF Orthogonal Assay: SK-MEL-5 CTG Assay Measured in Cell-Based System Using Plate Reader - 2084-02_Inhibitor_Dose_DryPowder_Activity_Set7.; format: functional
[16] = MITF: Counter assay: A375 proliferation Measured in Cell-Based System Using Plate Reader - 2084-03_Inhibitor_Dose_DryPowder_Activity_Set8.; format: functional; settings: A-375
[17] = inhibitors of TRPM1-promoter reporter in SK-MEL-5 – cell-based, luciferase, dry powder, set 8, MITF inhibitor project, dose response (AID 624430); format: functional
[18] = tested on: Streptococcus sp. 'group A'; assay: Streptococcus pyogenes SK(-)GAS viability under kanamycin – luminescence, BacTiterGlo, confirmation, counter-screen for streptokinase expression inhibitor project, dose response (AID 1900); format: functional, organism-based
Streptokinase A = molecular target: T1, Streptokinase A (Streptococcus pyogenes serotype M1, UniProt P10520); assay: viability-normalized secreted streptokinase activity reduction – plasminogen activation absorbance, OD405, dose response (AID 1914); format: functional, Streptococcus pyogenes M1 GAS;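 note: secreted streptokinase activity via plasminogen activation per viability signal from cell pellet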
T1 sequence (P10520 whole entry): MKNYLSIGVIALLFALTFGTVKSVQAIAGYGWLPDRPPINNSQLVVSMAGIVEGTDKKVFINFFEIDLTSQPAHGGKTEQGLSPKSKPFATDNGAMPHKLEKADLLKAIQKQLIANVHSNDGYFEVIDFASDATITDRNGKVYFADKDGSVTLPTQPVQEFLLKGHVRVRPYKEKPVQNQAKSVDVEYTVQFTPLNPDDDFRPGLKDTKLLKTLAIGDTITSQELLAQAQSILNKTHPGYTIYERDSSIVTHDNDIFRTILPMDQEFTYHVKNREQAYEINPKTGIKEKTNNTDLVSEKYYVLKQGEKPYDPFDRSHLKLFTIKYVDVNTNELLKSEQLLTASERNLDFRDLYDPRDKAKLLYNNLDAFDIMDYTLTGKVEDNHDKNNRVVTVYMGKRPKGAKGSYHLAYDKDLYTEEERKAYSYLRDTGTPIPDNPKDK

Streptococcus = assay: GAS UMAA2166 growth inhibition – luminescence, BacTiterGlo, counter-screen for streptokinase expression inhibitor project, dose response (AID 1915); format: functional, organism-based;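 note: potency for reduction of bacterial viability or growth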
[19] = IC50 of Artemis nuclease activity blockers – biochemical, fluorescence intensity, dose response (AID 720701); format: functional;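 note: Artemis endonuclease enzyme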

SMILES: COc1ccccc1NC(=S)NC(=O)c1ccc(-c2ccc(Cl)cc2)o1
- EC50 [1]: 100 nM (active)
- AC50 (Cytochrome P450 2C9): inconclusive

SMILES: Cc1ccc2cc(C=C(C#N)C#N)c(N3CCCCC3)nc2c1
- EC50 [2]: 46.4 µM (active)
- EC50 [3]: > 38 µM (not active)
- IC50 (Ephrin type-A receptor 4): 24.4 µM (active)

SMILES: COCc1nc2oc3ccc(C)cc3c(=O)c2cc1C(=O)OC
- EC50 [4]: 282 nM (active)
- EC50 [5]: 402 nM (active)
- EC50 [6]: 433 nM (active)
- EC50 (H4): > 120 µM (not active)
- EC50 [7]: < 100 nM (inconclusive)

SMILES: COc1cccc(N2CC(=O)C(c3nc4ccccc4s3)=C2N)c1
- IC50 (Major prion protein): 5.11 µM (active)
- IC50 (cells): > 138 µM (inactive)

SMILES: O=S(=O)(c1cccc(-c2nc3ccccc3s2)c1)N1CCOCC1
- IC50 (Estrogen receptor beta): > 50 µM (not active)

SMILES: C[C@@H]1CN([C@@H](C)CO)C(=O)Cc2cc(NS(=O)(=O)c3ccc(Cl)cc3)ccc2O[C@H]1CN(C)Cc1ccc(Cl)c(Cl)c1
- AC50 (Paired box protein Pax-8): 4.26 µM (active)
- AC50 [8]: 38.5 µM (active)

SMILES: COCOCCn1cc(CN2CCS(=O)(=O)N(Cc3ccc(-c4ccc(Cl)c(Cl)c4)cc3)C(C(C)C)C2=O)nn1 (centres undefined)
- AC50 [9]: > 70 µM (inactive)
- AC50 [10]: 1.35 µM (active)
- AC50 [11]: 7.09 µM (active)
- AC50 [12]: 1.86 µM (active)

SMILES: C[C@H](CO)N1C[C@H](C)[C@H](CN(C)Cc2ccccc2)Oc2cc(/C=C/c3ccccc3)ccc2S1(=O)=O
- AC50 [13]: 34.5 µM (active)
- AC50 [14]: 22.7 µM (active)

SMILES: CN1C(=O)c2cc(NC(=O)C3CC3)ccc2OC[C@H]2O[C@@H](CC(=O)O)CC[C@@H]21
- AC50 (Caspase-6): 23.1 µM (active)

SMILES: Cc1c(Cl)cccc1NC(=O)Cc1ccc([N+](=O)[O-])cc1
- IC50 (Prothrombin): > 50 µM (not active)

SMILES: COc1cc(C2C(C(=O)c3ccc(C)o3)=C(O)C(=O)N2CCc2ccccc2)ccc1O (centres undefined)
- Ki (fMet-Leu-Phe receptor): 19.7 µM (inactive)
- AC50 (Cytochrome P450 2C19): 11.2 µM (inconclusive)

SMILES: COc1ccc(CCNC(=O)COC(=O)c2ccc([N+](=O)[O-])o2)cc1
- AC50 (Caspase-6): 24.1 µM (active)

SMILES: Cc1ccccc1OCCOC(=O)c1cc(S(=O)(=O)N2CCCCC2)ccc1N1CCOCC1
- AC50 [9]: > 70 µM (inactive)
- AC50 [10]: 3.79 µM (active)
- AC50 [11]: > 70 µM (inactive)
- AC50 [12]: 4.28 µM (active)

SMILES: CC(C)CN(CCC(=O)O)CC(C)C
- IC50 (Estrogen receptor beta): > 50 µM (not active)

SMILES: CSc1nc(-c2ccco2)nn1C(=O)c1ccco1
- IC50 (Prothrombin): 0.22 µM (active)

SMILES: CCN1CCN(C2=C(Nc3ccc(OC)cc3)C(=O)c3ccccc3C2=O)CC1
- AC50 [15]: 12.2 µM (active)
- AC50 [16]: > 70 µM (inactive)
- AC50 [17]: 6.87 µM (active)

SMILES: COc1cc2c(C#N)c(N3CCN(c4ccccc4OC)CC3)nc(N)c2c(N)n1
- EC50 [18]: 4.63 µM (active)
- EC50 (Streptokinase A): 22.6 µM (active)
- EC50 (Streptococcus): > 150 µM (not active)
- IC50 [19]: > 20 µM (inactive)

SMILES: C=CCn1c(=S)[nH]c2cc(-c3ccccc3)sc2c1=O
- EC50 [1]: 1110 nM (active)

SMILES: COc1ccc(NC(=O)C2C(=O)NC3(C)CC2c2ccccc2O3)cc1 (centres undefined)
- Ki (fMet-Leu-Phe receptor): > 66.7 µM (inactive)

SMILES: O=C1C(Nc2ccc(F)cc2F)=C(N2CCCCC2)C(=O)c2ccccc21
- AC50 [15]: 3.64 µM (active)
- AC50 [16]: 21.8 µM (active)
- AC50 [17]: 0.931 µM (active)
